For this experiment, the system named is ALOMY (Alopecurus myosuroides, Blackgrass). Briefly: post-emergence greenhouse experiment, herbicidal action (scale 0 to 100). The following applies: test period 20 days. In kind it is in vivo. From the text:
The culture containers used were plastic flowerpots containing loamy sand with approximately 3.0% of humus as the substrate. The seeds of the test plants were sown separately for each species. For pre-emergence treatment, the active ingredients, which had been suspended or emulsified in water, were applied directly after sowing by means of finely distributing nozzles. The containers were irrigated gently to promote germination and growth and subsequently covered with transparent plastic hoods until the plants had rooted. This cover caused uniform germination of the test plants, unless this had been impaired by the active ingredients. For post-emergence treatment, the test plants were first grown to a height of 3 to 32 cm, depending on the plant habit, and only then treated with the active ingredients which had been suspended or emulsified in water. For this purpose, the test plants were either sown directly and grown in the same containers, or they were first grown separately as seedlings and transplanted into the test containers a few days prior to treatment. Depending on the species, the plants were kept at 10-25° C. or 20-35° C., respectively. The test period extended over 20 days. During this time, the plants were tended, and their response to the individual treatments was evaluated. The evaluation was carried out by using a scale from 0 to 100. […]

Turning to `CS(=O)(=O)c1cc(C(F)(F)F)ccc1C(=O)c1cnoc1C1CC1` [Isoxaflutole, isoxaflutole], the “Herbicidal action against ALOMY, Found” value was 0 (growth stage 11, Isoxaflutole 3.125 g/ha alone) and 0 (growth stage 11, Isoxaflutole 6.25 g/ha alone).

Values taken from patent US20210274784A1, “HERBICIDAL MIXTURES COMPRISING ISOXAFLUTOLE, SAFLUFENACIL AND AN IMIDAZOLINONE HERBICIDE; AND THEIR USE IN SOYBEAN AND COTTON CULTURES” (BASF SE, priority 2018, published 2021).
